Results published in the supplement of paper PMC10307832.

How the values were obtained:
Experiment in all cases: relative viability (nuclei count vs DMSO), 5 days (fraction); higher = more cells survive
Vorinostat + Trametinib = compound: O=C(CCCCCCC(=O)Nc1ccccc1)NO [Vorinostat] + CC(=O)Nc1cccc(-n2c(=O)n(C3CC3)c(=O)c3c(Nc4ccc(I)cc4F)n(C)c(=O)c(C)c32)c1 [Trametinib] (partner 0.02 µM)
Outline: (§1)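 Lung cancer cell lines, seeded in 1536-well plates, were treated the following day by pin tool with a single drug or with five library-drug doses (not always all listed) in √10 steps on top of a fixed anchor-drug dose. Cells were fixed and nuclei stained in one step after 5 days, and nuclei were counted. Relative viability is the nuclei count for treated wells divided by that for vehicle wells, reported as medians of duplicate plates.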

Vorinostat + Luminespib = compound: O=C(CCCCCCC(=O)Nc1ccccc1)NO [Vorinostat] + CCNC(=O)c1noc(-c2cc(C(C)C)c(O)cc2O)c1-c1ccc(CN2CCOCC2)cc1 [Luminespib] (partner 0.01 µM)
Outline: as §1

Vorinostat + Lapatinib = compound: O=C(CCCCCCC(=O)Nc1ccccc1)NO [Vorinostat] + CS(=O)(=O)CCNCc1ccc(-c2ccc3ncnc(Nc4ccc(OCc5cccc(F)c5)c(Cl)c4)c3c2)o1 [Lapatinib] (partner 2 µM)
Outline: as §1

Vorinostat + Pemetrexed = compound: O=C(CCCCCCC(=O)Nc1ccccc1)NO [Vorinostat] + Nc1nc2[nH]cc(CCc3ccc(C(=O)N[C@@H](CCC(=O)O)C(=O)O)cc3)c2c(=O)[nH]1 [Pemetrexed] (partner 0.2 µM)
Outline: as §1

Cell Line	relative viability (Vorinostat + Trametinib; first compound 0.253 µM)	relative viability (Vorinostat + Trametinib; first compound 0.8 µM)	relative viability (Vorinostat + Trametinib; first compound 2.53 µM)	relative viability (Vorinostat + Trametinib; first compound 8 µM)	relative viability (Vorinostat + Luminespib; first compound 0.253 µM)	relative viability (Vorinostat + Luminespib; first compound 0.8 µM)	relative viability (Vorinostat + Luminespib; first compound 2.53 µM)	relative viability (Vorinostat + Luminespib; first compound 8 µM)	relative viability (Vorinostat + Lapatinib; first compound 0.253 µM)	relative viability (Vorinostat + Lapatinib; first compound 0.8 µM)	relative viability (Vorinostat + Lapatinib; first compound 2.53 µM)	relative viability (Vorinostat + Lapatinib; first compound 8 µM)	relative viability (Vorinostat + Pemetrexed; first compound 0.253 µM)	relative viability (Vorinostat + Pemetrexed; first compound 0.8 µM)	relative viability (Vorinostat + Pemetrexed; first compound 2.53 µM)	relative viability (Vorinostat + Pemetrexed; first compound 8 µM)
SK-MES-1	0.728	0.71	0.454	0.239	1.01	0.774	0.423	0.178	0.504	0.438	0.433	0.187	1.08	1.07	0.553	0.207
H3255	0.819	0.709	0.576	0.227	0.743	0.808	0.602	0.315	0.24	0.17	0.141	0.101	0.656	0.573	0.56	0.289
NCI-H1975	0.395	0.311	0.123	0.106	0.286	0.202	0.147	0.16	1.16	0.787	0.303	0.117	0.323	0.243	0.183	0.133
NCI-H661	0.767	0.614	0.303	0.301	0.905	0.725	0.34	0.298	0.549	0.682	0.275	0.161	0.926	0.78	0.455	0.355
NCI-H1944	0.481	0.424	0.292	0.0999	0.716	0.573	0.304	0.147	0.77	0.572	0.43	0.236	0.585	0.448	0.311	0.135
EMC-BAC-2	0.836	0.687	0.292	0.154	1.13	1.13	0.484	0.182	1.04	0.871	0.405	0.149	0.377	0.368	0.26	0.208
NCI-H2085	0.587	0.503	0.285	0.155	0.447	0.411	0.317	0.19	0.676	0.608	0.494	0.278	1.02	0.738	0.45	0.18
NCI-H1651	0.869	0.76	0.343	0.062	0.831	0.799	0.429	0.116	1.07	0.532	0.108	0.0671	0.614	0.577	0.377	0.0787
NCI-H2087	0.202	0.158	0.141	0.087	0.226	0.148	0.157	0.127	1.23	0.962	0.352	0.178	0.637	0.617	0.347	0.132
LXF-289	0.709	0.639	0.424	0.0759	0.763	0.596	0.299	0.0958	0.985	0.859	0.468	0.116	0.905	0.794	0.554	0.0613
NCI-H3122	0.168	0.265	0.298	0.118	0.0783	0.0802	0.0456	0.0728	1.03	0.981	0.939	0.167	0.199	0.199	0.174	0.0738
NCI-H1793	0.383	0.34	0.3	0.182	0.206	0.187	0.159	0.146	0.588	0.613	0.375	0.162	1.26	0.869	0.654	0.175
NCI-H1734	0.721	0.713	0.5	0.117	0.24	0.185	0.165	0.0945	1.33	0.993	0.678	0.162	0.44	0.413	0.408	0.131
NCI-H838	0.631	0.481	0.279	0.112	0.287	0.207	0.199	0.118	1.44	0.863	0.425	0.148	0.258	0.269	0.19	0.167
NCI-H2023	0.65	0.422	0.184	0.07	1.04	0.534	0.188	0.0701	1.01	0.597	0.186	0.0723	0.233	0.182	0.103	0.067
NCI-H358	0.171	0.149	0.0954	0.0859	0.429	0.521	0.308	0.126	0.642	0.566	0.276	0.199	0.155	0.155	0.152	0.0859
LOU-NH91	0.883	0.857	0.754	0.455	0.376	0.417	0.329	0.283	0.843	0.799	0.688	0.346	0.362	0.324	0.387	0.351
NCI-H650	1.24	0.839	0.243	0.111	0.773	0.808	0.201	0.155	1.15	0.489	0.196	0.177	0.953	0.918	0.287	0.11
EKVX	0.401	0.337	0.18	0.115	0.984	0.952	0.659	0.17	0.217	0.209	0.173	0.107	0.384	0.413	0.386	0.146
NCI-H2405	0.87	0.872	0.486	0.141	0.995	1.03	0.596	0.164	1.36	1.18	0.306	0.0576	1.18	1.1	0.357	0.122
NCI-H1755	0.791	0.77	0.602	0.219	0.442	0.661	0.572	0.166	1.05	1.03	0.28	0.154	0.458	0.382	0.285	0.177
PC-3 [JPC-3]	0.695	0.644	0.405	0.348	0.746	0.801	0.282	0.261	0.456	0.441	0.326	0.252	1.1	0.866	0.285	0.281
NCI-H647	0.642	0.497	0.164	0.0479	0.0999	0.146	0.222	0.0619	1.49	0.947	0.163	0.0687	0.226	0.138	0.0722	0.0562
NCI-H520	0.959	0.549	0.212	0.124	0.209	0.213	0.212	0.195	1.12	0.668	0.319	0.116	0.831	0.663	0.322	0.17
NCI-H322M	0.595	0.501	0.552	0.408	1.25	1.11	0.731	0.28	0.733	0.608	0.522	0.352	0.764	0.603	0.569	0.355
COR-L 105	0.546	0.542	0.343	0.288	0.968	0.892	0.646	0.219	0.425	0.287	0.252	0.249	1.21	1.25	0.7	0.281
NCI-H1355	0.484	0.331	0.231	0.131	0.894	0.681	0.383	0.184	1.02	0.792	0.693	0.157	1.09	1.01	0.536	0.246
NCI-H2228	0.67	0.464	0.219	0.101	0.138	0.172	0.168	0.113	1.34	0.519	0.261	0.122	0.336	0.297	0.252	0.132
